Measurements: ChEMBL document CHEMBL6182944, “Substrate Specificity of the Organic Cation Transporters MATE1 and MATE2K and Functional Overlap with OCT1 and OCT2” (J Med Chem, 2025)

Columns and labels:
MATE2-K = molecular target: T1, MATE2-K (Homo sapiens, UniProt Q86VL8); assay: in vitro
T1 sequence (Q86VL8 whole entry): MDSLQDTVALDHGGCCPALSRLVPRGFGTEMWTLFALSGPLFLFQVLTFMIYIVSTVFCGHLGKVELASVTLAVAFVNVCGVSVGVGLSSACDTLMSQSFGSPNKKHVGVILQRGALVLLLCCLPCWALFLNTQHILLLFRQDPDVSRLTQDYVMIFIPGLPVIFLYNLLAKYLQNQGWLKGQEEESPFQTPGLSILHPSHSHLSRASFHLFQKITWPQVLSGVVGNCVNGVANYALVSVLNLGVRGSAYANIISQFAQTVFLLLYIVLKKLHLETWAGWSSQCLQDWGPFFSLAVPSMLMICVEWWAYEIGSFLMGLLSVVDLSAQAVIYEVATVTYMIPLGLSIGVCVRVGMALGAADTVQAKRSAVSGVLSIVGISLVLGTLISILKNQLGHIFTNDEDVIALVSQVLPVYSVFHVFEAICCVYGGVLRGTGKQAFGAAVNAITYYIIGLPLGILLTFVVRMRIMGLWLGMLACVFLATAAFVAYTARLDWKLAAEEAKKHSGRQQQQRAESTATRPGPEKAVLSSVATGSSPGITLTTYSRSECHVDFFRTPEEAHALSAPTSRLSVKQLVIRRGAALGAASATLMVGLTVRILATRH

MATE1 = molecular target: T2, MATE1 (Homo sapiens, UniProt Q96FL8); assay: in vitro
T2 sequence (Q96FL8 whole entry): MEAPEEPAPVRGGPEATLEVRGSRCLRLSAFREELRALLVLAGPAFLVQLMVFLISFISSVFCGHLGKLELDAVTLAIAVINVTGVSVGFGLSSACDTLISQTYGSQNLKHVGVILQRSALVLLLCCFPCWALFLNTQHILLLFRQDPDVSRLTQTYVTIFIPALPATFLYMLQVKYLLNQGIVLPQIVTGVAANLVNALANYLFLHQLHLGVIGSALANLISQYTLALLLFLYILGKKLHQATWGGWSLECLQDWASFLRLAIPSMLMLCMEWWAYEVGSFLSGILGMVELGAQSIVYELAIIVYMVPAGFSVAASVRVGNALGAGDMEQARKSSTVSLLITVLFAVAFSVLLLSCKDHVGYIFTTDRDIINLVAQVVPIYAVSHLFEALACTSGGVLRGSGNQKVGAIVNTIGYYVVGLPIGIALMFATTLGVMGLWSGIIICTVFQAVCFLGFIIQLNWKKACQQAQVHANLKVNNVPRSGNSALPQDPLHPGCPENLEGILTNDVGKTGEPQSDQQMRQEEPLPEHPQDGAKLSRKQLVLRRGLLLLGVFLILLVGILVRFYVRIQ

[1] = HEK293 cells expressing MATE2-K

| Structure (SMILES) | uptake ratio at 1 min, 2.5 µM (MATE2-K; hek293) | uptake ratio at 1 min, 2.5 µM (MATE1; hek293) | uptake ratio at 1 min, 2.5 µM (MATE2-K; [1]) | uptake ratio at 1 min, 2.5 µM (MATE1; HEK293 cells expressing MATE1) |
| --- | --- | --- | --- | --- |
| CCCC(=O)Nc1ccc(OCC(O)CNC(C)C)c(C(C)=O)c1 (configuration not stated) [ACEBUTOLOL] | > 2 | > 2 | – | – |
| N=C(N)NCCCCN [AGMATINE] | – | – | < 2 | < 2 |
| C=CCN1CCCC1CNC(=O)c1cc2[nH]nnc2cc1OC (configuration not stated) [ALIZAPRIDE] | – | – | > 2 | > 2 |
| CN(C)CCc1c[nH]c2ccc(CS(=O)(=O)N3CCCC3)cc12 [ALMOTRIPTAN] | – | – | > 2 | > 2 |
| Nc1ccncc1N [AMIFAMPRIDINE] | – | – | > 2 | > 2 |
| NC(N)=NCCCCN=C(N)N [ARCAINE] | – | – | > 2 | > 2 |
| O=C1CCc2ccc(OCCCCN3CCN(c4cccc(Cl)c4Cl)CC3)cc2N1 [ARIPIPRAZOLE] | < 2 | < 2 | – | – |
| CC(=O)c1cc2cccc(OCC(O)CNC(C)C)c2o1 (configuration not stated) [BEFUNOLOL] | – | – | < 2 | < 2 |
| CNCCc1ccccn1 [BETAHISTINE] | < 2 | < 2 | – | – |
| CC(C)NCC(O)COc1ccc(CCOCC2CC2)cc1 (configuration not stated) [BETAXOLOL] | < 2 | < 2 | – | – |
| CCCCNC(=N)NC(=N)N [BUFORMIN] | > 2 | > 2 | – | – |
| O=C1CC2(CCCC2)CC(=O)N1CCCCN1CCN(c2ncccn2)CC1 [BUSPIRONE] | < 2 | > 2 | – | – |
| CCCC[N+]1(C)[C@@H]2C[C@@H](OC(=O)[C@H](CO)c3ccccc3)C[C@H]1[C@@H]1O[C@@H]12 (some centres not stated) [BUTYLSCOPOLAMINE] | – | – | < 2 | > 2 |
| CCN(CC)C(=O)Nc1ccc(OCC(O)CNC(C)(C)C)c(C(C)=O)c1 (configuration not stated) [CELIPROLOL] | – | – | > 2 | > 2 |
| CN(C)CCCN1c2ccccc2Sc2ccc(Cl)cc21 [CHLORPROMAZINE] | < 2 | < 2 | – | – |
| C[N+](C)(C)CCO [CHOLINE] | < 2 | < 2 | – | – |
| CN/C(=N/CCSCc1nc[nH]c1C)NC#N [CIMETIDINE] | > 2 | > 2 | – | – |
| CC(C)(C)NCC(O)c1ccc(O)c(O)c1 (configuration not stated) [COLTEROL] | – | – | > 2 | > 2 |
| CN(CC(=O)O)C(=N)N [CREATINE] | – | – | < 2 | < 2 |
| CC1(C)N=C(N)N=C(N)N1c1ccc(Cl)cc1 [CYCLOGUANIL] | – | – | > 2 | > 2 |
| O=c1cccc2n1C[C@@H]1CNC[C@H]2C1 [CYTISINICLINE] | < 2 | > 2 | – | – |
| COc1cccc2c1C(=O)c1c(O)c3c(c(O)c1C2=O)C[C@@](O)(C(C)=O)C[C@@H]3O[C@H]1C[C@H](N)[C@H](O)[C@H](C)O1 [DAUNORUBICIN] | – | – | < 2 | < 2 |
| Nc1ncn([C@H]2C[C@H](O)[C@@H](CO)O2)c(=O)n1 [DECITABINE] | – | – | < 2 | < 2 |
| COc1cc2c(cc1OC)-c1c(C)c3ccc(OC)c(OC)c3c[n+]1CC2 [DEHYDROCORYDALINE] | – | – | > 2 | > 2 |
| CNCCc1ccc(O)c(O)c1 [DEOXIEPINEPHRINE] | – | – | > 2 | > 2 |
| CC(C)N(CCC(C(N)=O)(c1ccccc1)c1ccccn1)C(C)C (configuration not stated) [DISOPYRAMIDE] | – | – | < 2 | < 2 |
